Earlier results in patent US20230000786A1, “TREATMENT OF SKIN DISORDERS WITH TOPICAL COMPOSITIONS COMPRISING TAPINAROF AND A PDE4 INHIBITOR” (Sol-Gel Technologies Ltd., priority 2019, published 2023).
Where two headings read alike, the source gives them in different places.

Columns and labels:
[1] = 1% tapinarof arm compared with 0.5% arm or vehicle
[2] = across all groups treated
[3] = test system: proinflammatory mediators, including interleukin-6 and interleukin-17A; details: in vitro human skin studies
[4] = psoriasis treatment, single drug; placebo 20.2%
[5] = test system: proinflammatory mediators, including interleukin-6 and interleukin-17A; details: mouse models
[6] = interleukin-6 and interleukin-17A

SMILES	efficacy [1]	onset of action [1]	folliculitis side-effect [2]	contact dermatitis side-effect ([2]; listed among most common side-effects (>5%))	skin barrier function [3]	inhibition of specific proinflammatory mediators [3, 6]	adverse effects [4]	skin barrier function [5]	inhibition of specific proinflammatory mediators [5, 6]
CC(C)c1c(O)cc(/C=C/c2ccccc2)cc1O [Tapinarof, 3,5-dihydroxy-4-isopropyl-trans-stilbene]	higher efficacy	quicker onset of action	9%	> 5%	enhance skin barrier function	inhibit specific proinflammatory mediators	44.5%	enhance skin barrier function	inhibit specific proinflammatory mediators
C=C1/C(=C\C=C2/CCC[C@]3(C)[C@@H]([C@H](C)/C=C/[C@@H](O)C4CC4)CC[C@@H]23)C[C@@H](O)C[C@@H]1O [calcipotriene]							19.5%		
